Results: ChEMBL document CHEMBL1201862, “PubChem BioAssay data set” (2004)
Calls of active or inactive are those of the source.

Key:
[1] = molecular target: T1, Intestinal-type alkaline phosphatase (Homo sapiens, UniProt P09923); assay: human intestinal alkaline phosphatase activators, dose response, biochemical, luminescence, uHTS hits (AID 463120); type: functional
[2] = molecular target: T2, Alkaline phosphatase, tissue-nonspecific isozyme (Homo sapiens, UniProt P05186); assay: TNAP enzyme activators, dose response, selectivity assay for human IAP activator project, biochemical, TNAP isozyme, human IAP uHTS hits (AID 488886); type: functional;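 note: potency of compounds raising TNAP activity as a selectivity check on IAP activators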
T2 sequence (P05186 whole entry): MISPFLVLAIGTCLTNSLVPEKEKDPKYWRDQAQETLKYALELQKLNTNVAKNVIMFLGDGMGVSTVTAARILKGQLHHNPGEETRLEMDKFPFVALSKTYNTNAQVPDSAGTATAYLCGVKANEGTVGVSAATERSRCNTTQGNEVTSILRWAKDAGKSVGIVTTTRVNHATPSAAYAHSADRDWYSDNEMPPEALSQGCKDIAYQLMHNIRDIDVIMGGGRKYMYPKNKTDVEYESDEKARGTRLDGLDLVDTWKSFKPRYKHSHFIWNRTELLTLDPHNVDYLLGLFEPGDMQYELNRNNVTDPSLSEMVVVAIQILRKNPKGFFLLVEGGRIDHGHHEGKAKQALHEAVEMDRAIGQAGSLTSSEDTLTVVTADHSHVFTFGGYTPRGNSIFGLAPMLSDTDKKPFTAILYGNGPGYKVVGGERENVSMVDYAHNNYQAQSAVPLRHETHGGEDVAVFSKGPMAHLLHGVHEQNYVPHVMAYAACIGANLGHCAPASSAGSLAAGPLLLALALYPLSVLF

[3] = molecular target: T2, Alkaline phosphatase, tissue-nonspecific isozyme
[4] = molecular target: T1, Intestinal-type alkaline phosphatase; assay: human IAP activators, dose response, biochemical, luminescent, uHTS hits, set 2 (AID 488817); type: functional;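 note: potency of activators that raise enzyme activity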
[5] = molecular target: Intestinal-type alkaline phosphatase (Mus musculus, UniProt P24822); assay: PubChem AID 488874; type: functional
[6] = molecular target: T3, Tyrosine-protein phosphatase non-receptor type 22 (Homo sapiens, UniProt Q9Y2R2); type: functional
T3 sequence (Q9Y2R2 whole entry): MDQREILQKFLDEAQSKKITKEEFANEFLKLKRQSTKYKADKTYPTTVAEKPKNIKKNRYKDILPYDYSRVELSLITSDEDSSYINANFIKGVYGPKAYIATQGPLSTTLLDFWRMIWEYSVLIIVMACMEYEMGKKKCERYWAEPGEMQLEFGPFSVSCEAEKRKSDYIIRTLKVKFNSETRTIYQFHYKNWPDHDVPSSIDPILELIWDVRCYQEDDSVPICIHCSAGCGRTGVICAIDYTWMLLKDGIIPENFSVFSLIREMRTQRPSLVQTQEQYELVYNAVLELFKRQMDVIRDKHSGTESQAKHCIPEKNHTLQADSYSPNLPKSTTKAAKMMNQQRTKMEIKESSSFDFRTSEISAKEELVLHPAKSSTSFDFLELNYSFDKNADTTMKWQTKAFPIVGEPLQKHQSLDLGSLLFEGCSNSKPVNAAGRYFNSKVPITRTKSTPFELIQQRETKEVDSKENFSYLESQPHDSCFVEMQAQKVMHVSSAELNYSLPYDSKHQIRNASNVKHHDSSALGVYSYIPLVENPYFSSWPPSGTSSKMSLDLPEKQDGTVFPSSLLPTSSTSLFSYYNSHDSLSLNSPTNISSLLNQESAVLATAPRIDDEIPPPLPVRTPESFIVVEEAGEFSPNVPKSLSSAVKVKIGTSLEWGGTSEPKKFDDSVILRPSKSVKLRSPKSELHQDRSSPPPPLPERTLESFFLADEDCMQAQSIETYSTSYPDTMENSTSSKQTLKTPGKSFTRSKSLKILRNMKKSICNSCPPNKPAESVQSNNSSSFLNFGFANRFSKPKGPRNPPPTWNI

[7] = molecular target: T3, Tyrosine-protein phosphatase non-receptor type 22; type: functional; remark: listed apart in the source
[8] = molecular target: T4, Tyrosine-protein phosphatase non-receptor type 7 (Homo sapiens, UniProt P35236); type: functional
T4 sequence (P35236 whole entry): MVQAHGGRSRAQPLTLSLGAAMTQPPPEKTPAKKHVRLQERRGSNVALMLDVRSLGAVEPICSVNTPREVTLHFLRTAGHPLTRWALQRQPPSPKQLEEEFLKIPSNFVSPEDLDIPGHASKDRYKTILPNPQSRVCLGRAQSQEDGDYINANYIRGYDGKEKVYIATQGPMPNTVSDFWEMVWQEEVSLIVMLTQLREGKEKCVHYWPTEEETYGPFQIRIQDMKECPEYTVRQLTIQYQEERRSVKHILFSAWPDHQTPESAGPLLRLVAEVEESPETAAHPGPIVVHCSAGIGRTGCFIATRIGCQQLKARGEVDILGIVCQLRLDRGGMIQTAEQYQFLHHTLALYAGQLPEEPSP

Trypsin = Trypsin (Sus scrofa, UniProt P00761); assay: porcine trypsin inhibitors, dose response, selectivity assay for Rce1 protease inhibitor project, biochemical, quenched peptide fluorescence, cherry-pick (AID 488789)
cells = type: functional
[9] = Vero E6 cell cytotoxicity, dose response, cytotoxicity control for non-replicating M. tuberculosis project, secondary assay (AID 492998); type: functional, VeroE6; conditions: Vero C1008
CAAX prenyl protease 2 = molecular target: T5, CAAX prenyl protease 2 (Homo sapiens, UniProt Q9Y256); assay: human Rce1 protease inhibitors, dose response, biochemical, yeast membranes, quenched-peptide fluorescence, cherry-pick (AID 588849)
T5 sequence (Q9Y256 whole entry): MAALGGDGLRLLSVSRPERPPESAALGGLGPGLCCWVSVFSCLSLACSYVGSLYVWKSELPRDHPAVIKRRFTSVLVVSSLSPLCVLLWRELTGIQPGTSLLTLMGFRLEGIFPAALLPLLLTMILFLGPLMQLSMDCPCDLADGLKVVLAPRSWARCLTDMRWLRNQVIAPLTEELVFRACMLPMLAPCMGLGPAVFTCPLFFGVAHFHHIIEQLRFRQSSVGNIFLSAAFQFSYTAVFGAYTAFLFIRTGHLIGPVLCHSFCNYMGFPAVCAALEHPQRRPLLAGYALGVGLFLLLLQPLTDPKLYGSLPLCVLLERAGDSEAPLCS

[10] = HepG2 cell cytotoxicity, dose response, cytotoxicity control for non-replicating M. tuberculosis project (AID 489018); type: functional; conditions: Mycobacterium tuberculosis
CAAX prenyl protease 1 = CAAX prenyl protease 1 (Saccharomyces cerevisiae S288c, UniProt P47154); assay: Ste24 protease inhibitors, dose response, biochemical, S. cerevisiae, plate reader, cherry-pick (AID 488815)
[11] = molecular target: Voltage-dependent T-type calcium channel subunit alpha-1H (Homo sapiens, UniProt O95180); assay: Cav3.2 T-type channel blockers, cell-based, SynthLib3 library, HEK293 Cav3.2, fluorescence (AID 493041); type: functional
Sequence of Voltage-dependent T-type calcium channel subunit alpha-1H (O95180 whole entry): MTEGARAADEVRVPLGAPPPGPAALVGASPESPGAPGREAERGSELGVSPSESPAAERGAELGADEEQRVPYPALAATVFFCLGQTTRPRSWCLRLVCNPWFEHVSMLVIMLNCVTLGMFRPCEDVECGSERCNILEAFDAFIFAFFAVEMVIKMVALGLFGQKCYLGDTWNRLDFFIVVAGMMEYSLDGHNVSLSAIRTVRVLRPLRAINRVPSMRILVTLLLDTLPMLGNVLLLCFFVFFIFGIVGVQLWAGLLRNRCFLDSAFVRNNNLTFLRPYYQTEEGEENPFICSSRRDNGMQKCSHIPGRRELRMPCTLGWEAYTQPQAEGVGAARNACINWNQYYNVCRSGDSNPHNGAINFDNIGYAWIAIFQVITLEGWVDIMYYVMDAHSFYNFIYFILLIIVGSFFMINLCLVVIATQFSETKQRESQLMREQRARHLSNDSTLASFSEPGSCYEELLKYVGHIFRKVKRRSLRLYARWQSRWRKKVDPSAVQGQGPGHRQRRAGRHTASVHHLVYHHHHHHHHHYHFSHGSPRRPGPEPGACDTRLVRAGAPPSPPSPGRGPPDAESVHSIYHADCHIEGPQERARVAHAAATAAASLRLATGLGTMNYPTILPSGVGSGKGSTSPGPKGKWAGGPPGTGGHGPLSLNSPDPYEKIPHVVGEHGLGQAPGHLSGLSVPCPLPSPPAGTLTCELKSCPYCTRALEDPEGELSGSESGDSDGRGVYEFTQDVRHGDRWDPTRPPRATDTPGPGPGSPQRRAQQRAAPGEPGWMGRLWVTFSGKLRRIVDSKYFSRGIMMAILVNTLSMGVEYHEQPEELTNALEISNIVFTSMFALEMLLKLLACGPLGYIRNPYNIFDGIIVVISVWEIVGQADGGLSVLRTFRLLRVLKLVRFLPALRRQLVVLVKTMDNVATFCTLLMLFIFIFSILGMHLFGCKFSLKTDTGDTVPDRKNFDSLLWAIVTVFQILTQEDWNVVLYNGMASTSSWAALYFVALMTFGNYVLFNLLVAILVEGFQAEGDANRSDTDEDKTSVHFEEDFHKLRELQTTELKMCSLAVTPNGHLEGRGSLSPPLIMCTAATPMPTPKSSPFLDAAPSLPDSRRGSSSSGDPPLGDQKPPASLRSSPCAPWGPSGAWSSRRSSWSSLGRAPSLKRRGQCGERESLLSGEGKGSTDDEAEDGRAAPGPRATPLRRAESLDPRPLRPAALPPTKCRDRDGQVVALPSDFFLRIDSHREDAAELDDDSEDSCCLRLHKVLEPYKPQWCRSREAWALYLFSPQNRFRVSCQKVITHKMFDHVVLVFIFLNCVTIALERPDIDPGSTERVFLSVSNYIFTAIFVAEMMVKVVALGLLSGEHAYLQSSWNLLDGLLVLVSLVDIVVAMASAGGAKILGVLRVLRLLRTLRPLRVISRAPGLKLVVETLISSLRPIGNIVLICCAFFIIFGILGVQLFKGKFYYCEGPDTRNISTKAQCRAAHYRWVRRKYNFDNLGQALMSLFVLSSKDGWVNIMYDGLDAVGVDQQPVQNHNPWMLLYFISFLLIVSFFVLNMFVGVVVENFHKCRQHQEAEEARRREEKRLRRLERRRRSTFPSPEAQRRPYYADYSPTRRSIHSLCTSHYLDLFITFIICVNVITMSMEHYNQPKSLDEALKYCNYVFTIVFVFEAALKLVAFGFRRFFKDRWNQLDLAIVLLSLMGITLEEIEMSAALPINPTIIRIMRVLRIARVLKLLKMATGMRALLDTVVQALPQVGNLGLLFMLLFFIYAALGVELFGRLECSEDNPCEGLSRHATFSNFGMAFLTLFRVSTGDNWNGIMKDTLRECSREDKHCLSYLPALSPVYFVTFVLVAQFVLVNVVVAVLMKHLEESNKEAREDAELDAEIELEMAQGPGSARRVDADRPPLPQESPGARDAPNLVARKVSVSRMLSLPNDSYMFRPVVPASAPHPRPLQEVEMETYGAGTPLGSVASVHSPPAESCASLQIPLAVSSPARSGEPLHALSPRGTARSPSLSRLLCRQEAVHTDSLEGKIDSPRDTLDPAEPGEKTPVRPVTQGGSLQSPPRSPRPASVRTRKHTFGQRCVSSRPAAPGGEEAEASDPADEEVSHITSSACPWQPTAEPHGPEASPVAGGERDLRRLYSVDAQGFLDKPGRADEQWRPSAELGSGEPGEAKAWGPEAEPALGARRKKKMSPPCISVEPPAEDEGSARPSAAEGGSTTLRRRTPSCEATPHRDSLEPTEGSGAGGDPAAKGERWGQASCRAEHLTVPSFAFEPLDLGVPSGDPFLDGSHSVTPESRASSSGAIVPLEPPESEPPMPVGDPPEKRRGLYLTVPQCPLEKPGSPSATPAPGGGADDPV

T1 sequence (P09923 whole entry): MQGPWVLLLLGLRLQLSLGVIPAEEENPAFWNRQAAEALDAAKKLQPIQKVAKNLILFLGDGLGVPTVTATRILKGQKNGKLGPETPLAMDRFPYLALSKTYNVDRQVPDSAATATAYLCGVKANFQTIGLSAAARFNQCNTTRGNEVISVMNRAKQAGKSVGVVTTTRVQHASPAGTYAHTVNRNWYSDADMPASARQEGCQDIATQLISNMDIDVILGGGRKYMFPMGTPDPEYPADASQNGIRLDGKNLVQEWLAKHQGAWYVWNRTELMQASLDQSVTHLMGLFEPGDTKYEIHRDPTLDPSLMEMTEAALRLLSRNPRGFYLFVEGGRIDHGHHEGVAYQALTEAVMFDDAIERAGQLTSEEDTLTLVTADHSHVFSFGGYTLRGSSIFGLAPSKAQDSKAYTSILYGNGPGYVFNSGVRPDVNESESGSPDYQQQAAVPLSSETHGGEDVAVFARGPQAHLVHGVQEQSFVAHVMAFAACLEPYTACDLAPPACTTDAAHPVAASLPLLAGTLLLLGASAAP
Sequence of Intestinal-type alkaline phosphatase (Mus musculus, UniProt P24822) (P24822 whole entry): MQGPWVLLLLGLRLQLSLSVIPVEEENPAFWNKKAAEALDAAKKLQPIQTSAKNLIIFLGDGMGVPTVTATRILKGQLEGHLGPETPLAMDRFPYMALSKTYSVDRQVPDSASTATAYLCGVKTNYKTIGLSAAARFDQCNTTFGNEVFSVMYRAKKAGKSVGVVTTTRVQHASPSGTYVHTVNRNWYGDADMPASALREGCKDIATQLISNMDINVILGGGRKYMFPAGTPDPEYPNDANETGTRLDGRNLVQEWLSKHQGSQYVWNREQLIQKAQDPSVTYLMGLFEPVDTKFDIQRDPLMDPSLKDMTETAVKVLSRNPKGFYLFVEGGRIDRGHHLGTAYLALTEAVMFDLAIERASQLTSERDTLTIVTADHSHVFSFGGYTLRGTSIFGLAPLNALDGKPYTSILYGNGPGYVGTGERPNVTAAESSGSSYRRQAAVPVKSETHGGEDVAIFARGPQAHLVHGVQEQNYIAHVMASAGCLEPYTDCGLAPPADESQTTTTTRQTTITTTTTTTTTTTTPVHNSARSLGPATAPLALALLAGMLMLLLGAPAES
Sequence of CAAX prenyl protease 1 (P47154 whole entry): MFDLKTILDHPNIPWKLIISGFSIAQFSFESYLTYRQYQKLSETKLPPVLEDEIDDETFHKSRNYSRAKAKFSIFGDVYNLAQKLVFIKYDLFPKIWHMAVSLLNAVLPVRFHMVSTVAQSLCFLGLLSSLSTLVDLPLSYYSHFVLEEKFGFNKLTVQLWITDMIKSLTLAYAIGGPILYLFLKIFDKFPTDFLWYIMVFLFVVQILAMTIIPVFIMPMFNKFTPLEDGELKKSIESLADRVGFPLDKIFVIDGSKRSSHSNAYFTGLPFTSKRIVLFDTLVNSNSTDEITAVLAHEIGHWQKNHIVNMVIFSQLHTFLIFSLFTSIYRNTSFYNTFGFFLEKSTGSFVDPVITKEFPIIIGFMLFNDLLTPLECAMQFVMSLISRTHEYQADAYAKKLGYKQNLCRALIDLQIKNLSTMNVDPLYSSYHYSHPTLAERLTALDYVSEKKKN
Sequence of Trypsin (P00761 whole entry): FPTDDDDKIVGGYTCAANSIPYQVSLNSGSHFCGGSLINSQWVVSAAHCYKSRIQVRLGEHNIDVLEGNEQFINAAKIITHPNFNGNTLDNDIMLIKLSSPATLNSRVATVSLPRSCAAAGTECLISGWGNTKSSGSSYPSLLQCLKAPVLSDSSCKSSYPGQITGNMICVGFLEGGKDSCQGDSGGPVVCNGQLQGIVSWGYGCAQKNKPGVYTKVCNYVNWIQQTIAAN

CCCOCC(O)CC(CC)C(=O)NNC(=S)Nc1ccccc1 (stereo not given)
EC50 [1]: 14.1 µM (active)
EC50 [2]: 16.2 µM (active)
EC50 [3]: > 100 µM (not active)
EC50 [4]: 15.1 µM (active)
IC50 [5]: 69.5 µM (active)

Cc1cc(C(=O)NCCCN2CCCC2=O)cs1
IC50 [6]: > 79.4 µM (inactive)
IC50 [7]: > 79.4 µM (inactive)
IC50 [8]: > 79.4 µM (inactive)

Cc1nn2c(NCCN(C)C)c3c(nc2c1-c1ccccc1)CCCC3
AC50 (Trypsin): 12.7 µM (active)
IC50 (cells): 5.84 µM (active)
CC50 [9]: > 20 µM (active)
AC50 (CAAX prenyl protease 2): 14.3 µM (active)
CC50 [10]: 16.4 µM (active)
AC50 (CAAX prenyl protease 1): 4.57 µM (active)

CC(C)Cc1nnc(NC(=O)COc2ccc(Cl)cc2Cl)o1
EC50 [11]: 1.8 µM (active)
